Experimental data reported in patent publication US11884647B2, “Compounds and methods for targeting pathogenic blood vessels” (THE REGENTS OF THE UNIVERSITY OF CALIFORNIA, priority 2019, dated 2024).

How the values were obtained:
[1] = system: tumor endothelial cells (CT26.CL25 colon cancer tumor); test: Colon CT26 ex vivo model of tumor angiogenesis; assay type: cell-based; details: Mus musculus, CT26, 48 h, read-out: Cell death
Outline: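 Explant pieces of CT26 tumor (about 0.075 mm^3) were embedded in Matrigel and grown in endothelial growth medium at 37 °C for about 7 days until endothelial outgrowth appeared, then treated. Cell death was read about 48 h after drug addition by fluorescein diacetate (live) and propidium iodide (dead) staining with red/green imaging.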

[2] = system: tumor endothelial cells (LL/2 lung cancer tumor); test: Lung LL2 ex vivo model of tumor angiogenesis; assay type: cell-based, mouse; details: for cytotoxicity at 40 µM / cytotoxicity at 20 µM: Mus musculus, Endothelial cell, 48 h, read-out: Cell death; for Cell death: drug treatment two days
Outline: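 Read-out is live/dead fluorescence imaging (fluorescein diacetate green, propidium iodide red, 10 min at 37° C) at 2×, taken e.g. 48 h after drug addition. Fragments of mouse LL2 tumor are cultured in Matrigel with endothelial growth medium, usually 4 days, until new endothelial cells grow out, then treated.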

Structure (SMILES)	cytotoxicity at 40 µM [1] [%]	cytotoxicity at 40 µM [2] [%]	other results
CCc1ccc(S(=O)(=O)c2cnc3ccc(OC(F)(F)F)cc3c2N(C)Cc2ccccc2)cc1 [compound 49, N-benzyl-3-((4-ethylphenyl)sulfonyl)-N-methyl-6-(trifluoromethoxy)quinolin-4-amine]	10	30	
CCCCOc1ccc(S(=O)(=O)c2cnc3ccc(SC)cc3c2N2CCCN(CCN3CCCCC3)CC2)cc1 [compound 206, 3-((4-butoxyphenyl)sulfonyl)-6-(methylthio)-4-(4-(2-(piperidin-1-yl)ethyl)-1,4-diazepan-1-yl)quinoline]	100		cytotoxicity at 20 µM [2]: 30%
CCCCOc1ccc(S(=O)(=O)c2cnc3ccc(SC)cc3c2N2CCCN(C)CC2)cc1 [compound 160, 3-((4-butoxyphenyl)sulfonyl)-4-(4-methyl-1,4-diazepan-1-yl)-6-(methylthio)quinoline]	100	100	
CCN(CC)CCNC(=O)c1ccc2ncc(S(=O)(=O)c3ccc(OC)cc3)c(N3CCCN(C)CC3)c2c1 [compound 166, N-(2-(diethylamino)ethyl)-3-((4-methoxyphenyl)sulfonyl)-4-(4-methyl-1,4-diazepan-1-yl)quinoline-6-carboxamide]	60	10	
CCCCN(CCCC)c1c(S(=O)(=O)c2ccc(OC)c(OC)c2)cnc2ccc(OC(F)(F)F)cc12 [compound 74, N,N-dibutyl-3-((3,4-dimethoxyphenyl)sulfonyl)-6-(trifluoromethoxy)quinolin-4-amine]	100	60	
COc1ccc(S(=O)(=O)c2cnc3ccc(CC#N)cc3c2-n2cncn2)cc1 [compound 98, 2-(3-((4-methoxyphenyl)sulfonyl)-4-(1H-1,2,4-triazol-1-yl)quinolin-6-yl)acetonitrile]			cytotoxicity at 10 µM [1]: 50%; cytotoxicity at 20 µM [2]: 10%
CCCCOc1ccc(S(=O)(=O)c2cnc3ccc([S+](C)[O-])cc3c2N2CCC(N3CCC(O)(c4ccccc4)CC3)CC2)cc1 (stereo not shown) [compound 238, 1′-(3-((4-butoxyphenyl)sulfonyl)-6-(methylsulfinyl)quinolin-4-yl)-4-phenyl-[1,4′-bipiperidin]-4-ol]		100	cytotoxicity at 10 µM [1]: 10%
CCc1ccc(S(=O)(=O)c2cnc3ccc(C(=O)O)cc3c2N2CCCN(C)CC2)cc1 [compound 66, 3-((4-ethylphenyl)sulfonyl)-4-(4-methyl-1,4-diazepan-1-yl)quinoline-6-carboxylic acid]	0	10	
CCc1ccc(S(=O)(=O)c2cnc3ccc([N+](=O)[O-])cc3c2N2CCC(O)CC2)cc1 [compound 75, 1-(3-((4-ethylphenyl)sulfonyl)-6-nitroquinolin-4-yl)piperidin-4-ol]	0	80	
CCCN(CCC)c1c(S(=O)(=O)c2ccc(OC)c(OC)c2)cnc2ccc(OC(F)(F)F)cc12 [compound 71, 3-((3,4-dimethoxyphenyl)sulfonyl)-N,N-dipropyl-6-(trifluoromethoxy)quinolin-4-amine]	0	10	
CCCCOc1ccc(S(=O)(=O)c2cnc3ccc(S(C)(=O)=O)cc3c2N2CCCN(C)CC2)cc1 [compound 164, 3-((4-butoxyphenyl)sulfonyl)-4-(4-methyl-1,4-diazepan-1-yl)-6-(methylsulfonyl)quinoline]	100	95	
CCCCOc1ccc(S(=O)(=O)c2cnc3ccc(C(=O)OCC)cc3c2N2CCC(N3CCC(c4ccccc4)CC3)CC2)cc1 [compound 215, ethyl 3-((4-butoxyphenyl)sulfonyl)-4-(4-phenyl-[1,4′-bipiperidin]-1′-yl)quinoline-6-carboxylate]	20		Cell death ([2]; Lung LL2 ex vivo, Conc. 40 μm): 30%
CCCCOc1ccc(S(=O)(=O)c2cnc3ccc(C(=O)OCC)cc3c2N2CCC(N3CCN(CCO)CC3)CC2)cc1 [compound 214, ethyl 3-((4-butoxyphenyl)sulfonyl)-4-(4-(4-(2-hydroxyethyl)piperazin-1-yl)piperidin-1-yl)quinoline-6-carboxylate]	100	100	
CCCCN(CCCC)c1c(S(=O)(=O)c2ccc(CC)cc2)cnc2ccc(OC(F)(F)F)cc12 [compound 87, N,N-dibutyl-3-((4-ethylphenyl)sulfonyl)-6-(trifluoromethoxy)quinolin-4-amine]	0	0	
COc1ccc(S(=O)(=O)c2cnc3ccc(OC(F)(F)F)cc3c2N2CCC(O)CC2)cc1 [compound 44, 1-(3-((4-methoxyphenyl)sulfonyl)-6-(trifluoromethoxy)quinolin-4-yl)piperidin-4-ol]	0	50	
CCc1ccc(S(=O)(=O)c2cnc3ccc(OC(F)(F)F)cc3c2-n2ccnc2)cc1 [compound 118, 3-((4-ethylphenyl)sulfonyl)-4-(1H-imidazol-1-yl)-6-(trifluoromethoxy)quinoline]			cytotoxicity at 20 µM [1]: 100%; cytotoxicity at 20 µM [2]: 100%
COc1ccc(S(=O)(=O)c2cnc3ccc(OC(F)(F)F)cc3c2-n2cncn2)cc1 [compound 86, 3-((4-methoxyphenyl)sulfonyl)-4-(1H-1,2,4-triazol-1-yl)-6-(trifluoromethoxy)quinoline]			cytotoxicity at 10 µM [1]: 100%; cytotoxicity at 20 µM [2]: 100%
CCc1ccc(S(=O)(=O)c2cnc3ccc(OC(F)(F)F)cc3c2N2CCC(N3CCC(O)CC3)CC2)cc1 [compound 102, 1′-(3-((4-ethylphenyl)sulfonyl)-6-(trifluoromethoxy)quinolin-4-yl)-[1,4′-bipiperidin]-4-ol]	5		Cell death ([2]; Lung LL2 ex vivo, Conc. 20 μm): 20%
COc1ccc(S(=O)(=O)c2cnc3ccc([N+](=O)[O-])cc3c2-n2cncn2)cc1 [compound 97, 3-((4-methoxyphenyl)sulfonyl)-6-nitro-4-(1H-1,2,4-triazol-1-yl)quinoline]			cytotoxicity at 10 µM [1]: 100%; cytotoxicity at 20 µM [2]: 50%
N#Cc1ccc(S(=O)(=O)c2cnc3ccc(OC(F)(F)F)cc3c2N2CCC(N3CCCCC3)CC2)cc1 [compound 54, 4-((4-([1,4′-bipiperidin]-1′-yl)-6-(trifluoromethoxy)quinolin-3-yl)sulfonyl)benzonitrile]	10	50	
CCCCOc1ccc(S(=O)(=O)c2cnc3ccc(OC(F)(F)F)cc3c2N2CCC(N3CCCCC3)CC2)cc1 [compound 119, 4-([1,4′-bipiperidin]-1′-yl)-3-((4-butoxyphenyl)sulfonyl)-6-(trifluoromethoxy)quinoline]			cytotoxicity at 20 µM [1]: 50%; cytotoxicity at 20 µM [2]: 100%
CCc1ccc(S(=O)(=O)c2cnc3ccc(OC(F)(F)F)cc3c2N2CCCN(CCN(CC)CC)CC2)cc1 [compound 100, N,N-diethyl-2-(4-(3-((4-ethylphenyl)sulfonyl)-6-(trifluoromethoxy)quinolin-4-yl)-1,4-diazepan-1-yl)ethan-1-amine]	100	100	
CN1CCN(Nc2c(S(=O)(=O)c3ccc(OC(F)(F)F)cc3)cnc3ccc(OC(F)(F)F)cc23)CC1 [compound 90, N-(4-methylpiperazin-1-yl)-6-(trifluoromethoxy)-3-((4-(trifluoromethoxy)phenyl)sulfonyl)quinolin-4-amine]	0		Cell death ([2]; Lung LL2 ex vivo, Conc. 40 μm): 10%
CCCCOc1ccc(S(=O)(=O)c2cnc3ccc([S+](C)[O-])cc3c2N2CCCN(C)CC2)cc1 (stereo not shown) [compound 163, 3-((4-butoxyphenyl)sulfonyl)-4-(4-methyl-1,4-diazepan-1-yl)-6-(methylsulfinyl)quinoline]	100	95	
CCCCCCCOc1ccc(S(=O)(=O)c2cnc3ccc([S+](C)[O-])cc3c2N2CCC(N3CCN(C)CC3)CC2)cc1 (stereo not shown) [compound 253, 3-((4-(heptyloxy)phenyl)sulfonyl)-4-(4-(4-methylpiperazin-1-yl)piperidin-1-yl)-6-(methylsulfinyl)quinoline]			cytotoxicity at 10 µM [1]: 80%; cytotoxicity at 20 µM [2]: 100%
CCc1ccc(S(=O)(=O)c2cnc3ccc(OC(F)(F)F)cc3c2N2CCN(c3ccc(C#N)cc3)CC2)cc1 [compound 45, 4-(4-(3-((4-ethylphenyl)sulfonyl)-6-(trifluoromethoxy)quinolin-4-yl)piperazin-1-yl)benzonitrile]	0		Cell death ([2]; Lung LL2 ex vivo, Conc. 40 μm): 10%
COc1ccc(S(=O)(=O)c2cnc3ccc(OC(F)(F)F)cc3c2NCCO)cc1OC [compound 69, 2-((3-((3,4-dimethoxyphenyl)sulfonyl)-6-(trifluoromethoxy)quinolin-4-yl)amino)ethan-1-ol]	0		48 hrs (morphology observations after 48 hours) ([2]; Lung LL2 ex vivo, Conc. 40 μm, 48 hrs): 0; Cell death ([2]; Lung LL2 ex vivo, Conc. 40 μm): 20%
CCCCOc1ccc(S(=O)(=O)c2cnc3ccc(C(=O)NC(C)C)cc3c2N2CCCN(C)CC2)cc1 [compound 192, 3-((4-butoxyphenyl)sulfonyl)-N-isopropyl-4-(4-methyl-1,4-diazepan-1-yl)quinoline-6-carboxamide]	10	60	
O=[N+]([O-])c1ccc(S(=O)(=O)c2cnc3ccc(OC(F)(F)F)cc3c2N2CCC(O)CC2)cc1 [compound 61, 1-(3-((4-nitrophenyl)sulfonyl)-6-(trifluoromethoxy)quinolin-4-yl)piperidin-4-ol]	20	50	
CCCCCCCOc1ccc(S(=O)(=O)c2cnc3ccc([S+](C)[O-])cc3c2N2CCCN(C)CC2)cc1 (stereo not shown) [compound 220, 3-((4-(heptyloxy)phenyl)sulfonyl)-4-(4-methyl-1,4-diazepan-1-yl)-6-(methylsulfinyl)quinoline]	100	100	
